Measurements as given in US7691890B2, “Anti-viral uses of leflunomide products” (priority 1998, dated 2010).
Read-outs that look alike come from different tables or passages of the source.

Key:
[1] = cited from earlier work
Influenza A (H1N1) [2] = assay: Neutral red uptake test; conditions: IC50 divided by EC50
hepatitis B virus (HBV) = assay: microbe, parasite or virus in culture; format: cell-based; conditions: for EC50 / EC90: Hepatitis B virus, 216 h; for EC90: HBV DNA, 9 day treatment
Influenza A (H3N2) [3] = assay: Neutral red uptake test; conditions: IC50 divided by EC50
Influenza A (H1N1) [4] = assay: CPE inhibition test; format: cell-based; conditions: for CPE Inhibition test SI: Influenza A (H1N1), IC50 divided by EC50; for EC50: Influenza A virus, H1N1, MDCK, read-out: CPE Inhibition test EC50
Rhinovirus Type 5 [5] = assay: Neutral red uptake test; format: cell-based; conditions: IC50 divided by EC50
Measles Virus [6] = assay: microbe, parasite or virus in culture; format: cell-based, Measles virus (Chicago strain); conditions: for CPE Inhibition test SI: IC50 divided by EC50
Measles Virus [7] = assay: microbe, parasite or virus in culture; format: cell-based, Measles virus (Chicago strain); conditions: for Neutral Red Uptake test SI: IC50 divided by EC50
[8] = test system: Parainfluenza Type 3 Virus; assay: organism not typed; format: cell-based, parainfluenza type 3 virus (14702); conditions: for Neutral Red Uptake test SI: IC50 divided by EC50
[9] = Toxicity to 2.2.15 cells by neutral red dye uptake; format: cell-based; conditions: human, 2.2.15 human liver cells
Method: Toxicity of test compounds to cultures of 2.2.15 cells was also determined as follows. Four concentrations of each compound were assayed and compared to untreated control cultures. Toxicity was determined by the uptake of neutral red dye, as determined by absorbance at 510 nm relative to untreated cells.

Influenza A (H3N2) [10] = assay: CPE inhibition test; format: cell-based; conditions: for CPE Inhibition test SI: Influenza A (H3N2), IC50 divided by EC50; for EC50: Influenza A virus, H3N2, MDCK, read-out: CPE Inhibition test EC50
Adenovirus Type 1 [11] = assay: Neutral red uptake test; format: cell-based, Adenovirus type 1 (65089/Chicago); conditions: IC50 divided by EC50
Influenza B [12] = assay: Neutral red uptake test; conditions: IC50 divided by EC50
Adenovirus Type 1 [13] = assay: CPE inhibition test; format: cell-based, Adenovirus type 1 (65089/Chicago); conditions: IC50 divided by EC50
[14] = test system: Respiratory Syncytial Virus A; assay: microbe, parasite or virus in culture; format: cell-based, Respiratory syncytial virus (RSV) (A2); conditions: for Neutral Red Uptake test SI: IC50 divided by EC50
Influenza B [15] = assay: CPE inhibition test; format: cell-based; conditions: for EC50: Influenza B virus, MDCK, read-out: CPE Inhibition test EC50; for CPE Inhibition test SI: Influenza B, IC50 divided by EC50
[16] = test system: Respiratory Syncytial Virus A; assay: microbe, parasite or virus in culture; format: cell-based, Respiratory syncytial virus (RSV) (A2); conditions: for CPE Inhibition test SI: IC50 divided by EC50
[17] = test system: Parainfluenza Type 3 Virus; assay: organism not typed; format: cell-based, parainfluenza type 3 virus (14702); conditions: for CPE Inhibition test SI: IC50 divided by EC50
Rhinovirus Type 5 [18] = format: cell-based; conditions: IC50 divided by EC50
CMV DNA = assay: Dot blot quantitation of viral DNA in CMV-infected cells; format: cell-based; conditions: CMV P8-infected HFF, 48 hours, 100 μM A771726 or 1 mM PFA; identical results in HUVEC (200 μM)
Method: All experiments included infected cultures incubated in the presence of 1 mM PFA as well as uninfected controls. 48 hours post-inoculation cells were harvested by trypsin digestion, washed in PBS, and incubated for 12 hours at 50° C. in 0.1 mg/ml proteinase K (Sigma) in digestion buffer (100 mM NaCl, 10 mM Tris-HCl, 25 mM EDTA, 0.5% SDS). DNA was extracted in phenol/chloroform, precipitated with ammonium acetate/ethanol, and resuspended in TE buffer. Following equalization of concentrations, extracted DNA was serially diluted in 96-well microtiter plates and 0.4 M NaOH/10 mM EDTA was added to each well. DNA was denatured in sealed plates by heating for 10 minutes in a 100° C. waterbath, transferred to nylon membranes (Hybond N, Amersham) using a vacuum dotblot manifold (Bio-Rad Laboratories, Hercules, Calif.), and immobilized by UV cross-linking. The cDNA probe was generated by HindIII digest of cosmid pCM 1015 (Fleckenstein et al., Gene, 18:39, 1982) which contains ˜45 kb of the UL region of the CMV AD169 genome. The probe was α-[^32P]dCTP-labelled by random priming. Unincorporated isotope was removed from labelled probe using a G-50 spin column (Worthington Biochemicals). Membranes were hybridized, washed, and bound probe was detected by autoradiography.

[19] = test system: CMV pp65, 72 kD IE1, glycoprotein B (gB); assay: Immunohistochemical staining of CMV proteins in infected HUVEC; format: cell-based; conditions: CMV VHL/E, 200 μM A771726 or 1 mM PFA
Method: Slides were incubated in the presence of absence of the agents for various intervals, acetone-fixed, and stained by the immunoperoxidase method.

CMV DNA polymerase = format: biochemical; conditions: extracts of VHL/E-infected HUVEC or P8-infected HFF, various concentrations
[20] = in vivo; cited from earlier work
[21] = test system: rat CMV (RCMV RA67, Maastricht strain); assay: Rat CMV infection of immunodeficient nude rats, tissue plaque assay; format: in vivo; conditions: RCMV i.p., leflunomide 15 mg/kg/day for 14 days, 14 days post-inoculation

Nc1ccn(C[C@@H](CO)OCP(=O)(O)O)c(=O)n1 [Cidofovir]
neutropenia ([1]; in vivo): approximately 10 % of recipients

Cc1nocc1C(=O)Nc1ccc(C(F)(F)F)cc1 [Compound 99-126, N-(4-trifluoromethylphenyl)-3-methylisoxazol-4-carboxamide]
Neutral Red Uptake test SI (Influenza A (H1N1) [2]): 1.0 | EC50 (hepatitis B virus (HBV)): > 100 µM | EC90 (hepatitis B virus (HBV); 2.2.15 cells): > 100 µM | anti-viral effect on HBV (in words) (hepatitis B virus (HBV); summary of Table 2): some anti-viral effect | Neutral Red Uptake test SI (Influenza A (H3N2) [3]): 1.0 | CPE Inhibition test SI (Influenza A (H1N1) [4]): <3.2 | EC50 (Influenza A (H1N1) [4]): > 20 µM | Neutral Red Uptake test SI (Rhinovirus Type 5 [5]): 0 | CPE Inhibition test SI (Measles Virus [6]): 6 | Neutral Red Uptake test SI (Measles Virus [7]): 2 | Neutral Red Uptake test SI [8]: 1 | CC50 [9]: 110 µM | CPE Inhibition test SI (Influenza A (H3N2) [10]): 0 | EC50 (Influenza A (H3N2) [10]): > 200 µM | Neutral Red Uptake test SI (Adenovirus Type 1 [11]): 0 | Neutral Red Uptake test SI (Influenza B [12]): 1.0 | CPE Inhibition test SI (Adenovirus Type 1 [13]): 0 | Neutral Red Uptake test SI [14]: 0 | EC50 (Influenza B [15]): 60 µM | CPE Inhibition test SI (Influenza B [15]): 1.2 | CPE Inhibition test SI [16]: 0 | CPE Inhibition test SI [17]: 0 | CPE Inhibition test SI (Rhinovirus Type 5 [18]): 1

Cc1oncc1C(=O)Nc1cccc(C(F)(F)F)c1 [Compound 99-127, N-(3-trifluoromethylphenyl)-5-methylisoxazol-4-carboxamide]
Neutral Red Uptake test SI (Influenza A (H1N1) [2]): 1.0 | SI (hepatitis B virus (HBV); HBV, 2.2.15 cells): 0.7 | EC50 (hepatitis B virus (HBV)): 11 µM | EC90 (hepatitis B virus (HBV); 2.2.15 cells): 96 µM | Neutral Red Uptake test SI (Influenza A (H3N2) [3]): 1.0 | CPE Inhibition test SI (Influenza A (H1N1) [4]): 0 | EC50 (Influenza A (H1N1) [4]): > 200 µM | CPE Inhibition test SI (Measles Virus [6]): 0 | Neutral Red Uptake test SI (Measles Virus [7]): 0 | Neutral Red Uptake test SI [8]: 0 | CC50 [9]: 67 µM | CPE Inhibition test SI (Influenza A (H3N2) [10]): 0 | EC50 (Influenza A (H3N2) [10]): > 200 µM | Neutral Red Uptake test SI (Influenza B [12]): 1.1 | Neutral Red Uptake test SI [14]: 0 | EC50 (Influenza B [15]): > 200 µM | CPE Inhibition test SI (Influenza B [15]): 0 | CPE Inhibition test SI [16]: 0 | CPE Inhibition test SI [17]: 0

Nc1ncnc2c1ncn2C[C@@H](CO)OCP(=O)(O)O [HPMPA, reference compound]
Neutral Red Uptake test SI (Adenovirus Type 1 [11]): >20 | CPE Inhibition test SI (Adenovirus Type 1 [13]): 8

O=C([O-])P(=O)(O)O.[Na+] [PFA, sodium phosphonoformate]
frequency of each toxicity (renal dysfunction, hypomagnesemia, hypokalemia, hypocalcemia, seizures, fever, rash) ([1]; intravenous foscarnet): more than 5% of recipients | quantity of viral DNA synthesized (CMV DNA): no detectable CMV DNA | expression of CMV pp65 and IE1 ([19]; 24-48 hr pi): unimpeded | expression of CMV late structural glycoprotein B (gB) ([19]; 96 hours pi): unable to express gB | CMV DNA polymerase activity (CMV DNA polymerase): complete inhibition at 1 mM

Cc1oncc1C(=O)Nc1ccc(C(F)(F)F)cc1 [leflunomide, N-(4-trifluoromethylphenyl)-5-methylisoxazol-4-carboxamide]
toxicity in animal studies [20]: liver and cardiac toxicity | viral load in salivary glands, lungs and spleens [21]: significantly reduced viral load

NC(=O)c1ncn([C@@H]2O[C@H](CO)[C@@H](O)[C@H]2O)n1 [ribavirin, reference compound]
EC50 (Measles Virus [6]; Measles morbillivirus, CV-1 cells, read-out: CPE Inhibition test EC50): 41 µM | EC50 (Measles Virus [7]; Measles morbillivirus, CV-1 cells, read-out: Neutral Red Uptake test EC50): 41 µM | EC50 ([8]; MA104, MA-104 cells, read-out: Neutral Red Uptake test EC50): 120 µM | EC50 ([14]; human respiratory syncytial virus, MA104, MA-104 cells, read-out: Neutral Red Uptake test EC50): 82 µM | EC50 ([16]; human respiratory syncytial virus, MA104, MA-104 cells, read-out: CPE Inhibition test EC50): 290 µM | EC50 ([17]; MA104, MA-104 cells, read-out: CPE Inhibition test EC50): 230 µM

O=c1ccn([C@@H]2O[C@H](CO)[C@@H](O)[C@H]2O)c(=O)[nH]1 [uridine]
EC50 (hepatitis B virus (HBV)): > 100 µM | EC90 (hepatitis B virus (HBV); 2.2.15 cells): > 100 µM | CC50 [9]: > 100 µM
